Results reported in PMC8767159, “Multiparameter Optimization of Trypanocidal Cruzain Inhibitors With In Vivo Activity and Favorable Pharmacokinetics” (Frontiers in Pharmacology, 2022).
Where two headings read alike, the source gives them in different places.

Experiments:
[1] = Cytotoxicity MTS assay in HFF-1 fibroblasts; type: cell-based; details: human HFF-1 fibroblasts
Description: The synthesized compounds were evaluated for their cytotoxicity against HFF-1 cells using the MTS assay (Promega, Madison, WI) ([Barltrop et al., 1991]) as previously described ([Ferreira et al., 2019]). HFF-1 fibroblasts were plated at 2 × 10^3/well in 96-well culture plates in RPMI 1640 without phenol red enriched with 10% FCS and incubated overnight at 37°C and 5% CO2. Next, 7 concentrations (0.1–100 µM) of the compounds were added in 3-fold serial dilutions, each concentration in triplicate, and the plates were incubated for 72 h at 37°C and 5% CO2. Next, 20 µl of MTS was added to each well, and the plates were incubated for an additional 4 h at 37°C and 5% CO2. The absorbance was measured at 490 nm using a spectrophotometer, and the data were transferred to SigmaPlot 10.0 (Systat Software Inc., Erkrath, Germany) to determine the IC50 values. Doxorubicin (Sigma–Aldrich) was used as a positive control, and untreated wells (100% growth) were used as negative controls in all plates. All compounds were tested in two independent assays.

[2] = In vitro metabolic stability in mouse liver microsomes; type: in vitro ADME; details: mouse, liver microsomes
Method in brief: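 Compounds incubated at 37°C with mouse or human liver microsomes (0.25 mg/ml) in potassium phosphate buffer with NADPH; samples quenched in ACN/MeOH at 0, 5, 10, 15, 20 and 30 min. Parent remaining by LC-MS/MS relative to 0 min; T½ = ln(2)/k, CLint = k*1000/0.25 (μL/min/mg).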

[3] = In vivo pharmacokinetics in male CD1 mice; parameters: species or system mouse; details: for CLpu: plasma clearance corrected for the fraction unbound; for clearance: plasma clearance, read-out: CLp (L/h/kg) IV (converted); for bioavailability: oral bioavailability
Description: The in vivo pharmacokinetic profiles of the compounds were determined using male CD1 mice weighing […] ([Davies and Morris, 1993]; [Liu and Jia, 2007]). The compounds were administered in a single dose orally (0.5 mg/kg) and intravenously (0.5 mg/kg). Stock solutions of the compounds in DMSO were diluted in Tween 80, PEG-400, and D5W (5% dextrose in water) at a ratio of 2:5:20:73 (v/v). The injection volume was 10 ml/kg. The remaining plasma concentration was monitored over time by LC-MS/MS by collecting blood samples (40 μl) at 10, 25, and 50 min and 1, 3, 6, 9, 12, and 24 h after administration of the compound.
For the biotransformation experiments and analysis of metabolites in microsomes, an Ultra-High-Pressure Liquid Chromatography instrument (UHPLC, Thermo Accela, Waltham, MA) ([Spaggiari et al., 2014]) connected to an automatic sample injector and a 1250 series pump was used. The UHPLC system was connected to a Thermo Fisher (Waltham, MA) LTQ Orbitrap mass spectrometer. For all other analyses, an AB Sciex Triple Quad 5500 coupled to a UHPLC equipped with a UV 1290 diode detector (Agilent Technologies, Santa Clara, CA) and a CTC PAL self-collecting system (LEAP Technologies, Carrboro, NC) was used. Q1 MS positive ion mode (300–500 Da) was used to detect the ions of the parent compounds. The UV detector was operated in spectral mode (250–280 nm). A Hypersil Gold C18 (2.1 mm × 100 mm, 1.9 µm, Thermo Fisher) HPLC column was used. The mobile phases were solvent A (0.1% formic acid in water) and solvent B (0.1% formic acid in ACN). The flow was adjusted to 0.55 ml/min, and the injection volume was adjusted to […]. The gradient started with 1% solvent B for 0.4 min, reached 40% (solvent B) in 2.3 min and 95% (solvent B) in 0.67 min, was maintained for 0.5 min, and returned to the initial condition of 1%. This condition was maintained for 1 min before injection of the next sample. The peak area ratio (peak area of the test compounds/peak area of the control compounds) was converted to the percentage of remaining compound, with the 0 min time point ratio set to 100%. T½ and CLint were calculated from the percentage of remaining compound versus the incubation time. From the resulting function, the slope (k) was determined. The equations T1/2 (min) = ln(2)/k and CLint in vitro (μL/min/mg) = k*1000/0.25 were used to determine T½ and CLint.

rhodesain = rhodesain (Trypanosoma brucei rhodesiense, UniProt Q95PM0); assay: Rhodesain fluorescence-based inhibition assay (Z-FR-AMC); type: biochemical; details: Table S3; compound 100 µM
rhodesain, sequence (Q95PM0 entry or part of it): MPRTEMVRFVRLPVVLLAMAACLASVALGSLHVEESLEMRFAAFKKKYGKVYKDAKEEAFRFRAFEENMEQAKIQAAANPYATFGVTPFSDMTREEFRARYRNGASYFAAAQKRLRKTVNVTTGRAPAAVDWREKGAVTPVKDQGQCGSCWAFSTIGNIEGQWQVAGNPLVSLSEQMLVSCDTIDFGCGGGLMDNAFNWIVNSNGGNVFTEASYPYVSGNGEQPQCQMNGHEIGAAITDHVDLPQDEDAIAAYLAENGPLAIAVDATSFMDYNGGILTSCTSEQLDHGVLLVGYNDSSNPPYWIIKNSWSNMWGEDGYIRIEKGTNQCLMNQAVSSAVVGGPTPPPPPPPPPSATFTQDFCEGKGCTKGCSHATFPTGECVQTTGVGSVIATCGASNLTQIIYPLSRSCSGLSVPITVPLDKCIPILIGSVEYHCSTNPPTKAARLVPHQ
Description: Rhodesain activity was measured using a fluorescence-based assay as previously described ([Fonseca et al., 2015]). The cleavage rates of the fluorogenic substrate Z-Phe-Arg-aminomethyl coumarin (Z-FR-AMC) were monitored at wavelengths of 340 nm for excitation and 440 nm for emission. All assays were performed in triplicate in a 0.1 M sodium acetate buffer, pH 5.5, with 1 mM beta-mercaptoethanol and 0.01% Triton X-100. The final concentration of rhodesain was 3 nM, and the substrate concentration was 2.5 μM. The cleavage of the substrate was followed by continuous reading for 5 min, and enzyme activity in the presence of 100 μM of each potential inhibitor was calculated based on initial velocity rates compared to DMSO controls. All compounds were tested in triplicate in three independent experiments.

[4] = Table S5, CLint/fu, read-out: CLint_u (L/h/kg) Mouse (converted)
[5] = Table S5, read-out: CLint (L/h/kg) Mouse (converted)
[6] = male, CD1, mouse, 0.5 mg/kg, Table S6, IV, mice
[7] = male, CD1, mouse, plasma, 0.5 mg/kg, Table S6, IV, mice
[8] = male, CD1, mouse, plasma, 0.5 mg/kg, Table S6, IV, mice, read-out: AUC (ng*h/mL) IV
[9] = male, CD1, mouse, plasma, 0.5 mg/kg, Table S6, IV, mice, read-out: T1/2(h) IV (converted)
[10] = male, CD1, mouse, plasma, 0.5 mg/kg, Table S6, IV, mice, read-out: VSS (L/kg) IV
[11] = male, CD1, mouse, plasma, 0.5 mg/kg, Table S6, PO, mice
[12] = Table 5, CLint/fu, read-out: CLint_u (L/h/kg) mouse (converted)
[13] = Table 5, read-out: CLint (L/h/kg) mouse (converted)
[14] = mouse, plasma, 0.5 mg/kg, Table 6, male CD1 mice
[15] = mouse, plasma, Table 6, IV 0.5 mg/kg, male CD1 mice
[16] = mouse, plasma, Table 6, IV 0.5 mg/kg, male CD1 mice, read-out: AUC (ng*h/ml) IV
[17] = mouse, plasma, Table 6, IV 0.5 mg/kg, male CD1 mice, read-out: T1/2 (h) IV (converted)
[18] = mouse, plasma, Table 6, IV 0.5 mg/kg, male CD1 mice, read-out: V SS (L/kg) IV
[19] = mouse, Table 6, IV 0.5 mg/kg, male CD1 mice

Row | SMILES | IC50 at 72 h [1] [µM] | CLint scaled at 5 µM [2, 4] [L/h/kg] | CLint scaled at 5 µM [2, 5] [L/h/kg] | CLpu ([3]; Table S6) [mL/min/kg] | clearance [3, 6] [L/h/kg] | C0 [3, 7] [ng/mL] | AUC [3, 8] [ng·h/mL] | half-life [3, 9] [h] | Vd [3, 10] [L/kg] | inhibition at 100 µM (rhodesain) [%] | CLint scaled at 5 µM [2, 12] [L/h/kg] | CLint scaled at 5 µM [2, 13] [L/h/kg] | CLpu ([3]; Table 6, IV) [mL/min/kg] | bioavailability [3, 14] [%] | C0 [3, 15] [ng/mL] | AUC [3, 16] [ng·h/mL] | half-life [3, 17] [h] | Vd [3, 18] [L/kg] | clearance [3, 19] [L/h/kg] | also measured
1 | O=C(COc1cccc([N+](=O)[O-])c1)NCCc1nc2ccccc2[nH]1 [Compound 8] | > 100 | 67.5 | 67.5 | 396.2 | 3.31 | 925 | 322 | 0.21 | 1.04 | – | – | – | – | – | – | – | – | – | – | Cmax [3, 11]: 61 ng/mL; Tmax [3, 11]: 18.6 min; AUC ([3]; male, CD1, mouse, plasma, 0.5 mg/kg, Table S6, PO, mice, read-out: AUC (ng*h/mL) PO): 44.6 ng·h/mL; half-life ([3]; male, CD1, mouse, plasma, 0.5 mg/kg, Table S6, PO, mice, read-out: T1/2 (h) PO (converted)): 0.42 h; bioavailability ([3]; male, CD1, mouse, plasma, 0.5 mg/kg, Table S6, mice): 14%
2 | Nc1cccc(OCC(=O)NCCc2nc3ccccc3[nH]2)c1 [Compound 9] | – | 22.8 | 22.7 | – | – | – | – | – | – | 40 | – | – | – | – | – | – | – | – | – | –
3 | O=C(COc1ccc2ccc(O)cc2c1)NCCc1nc2ccccc2[nH]1 [Compound 11] | – | 68.5 | 45.7 | 8011 | 12.9 | 400 | 77 | 0.13 | 1.92 | 67 | – | – | – | – | – | – | – | – | – | –
4 | COc1ccc2cc(OCC(=O)NCCc3nc4ccccc4[nH]3)ccc2c1 [Compound 12] | – | 1610 | 177 | – | – | – | – | – | – | 56 | – | – | – | – | – | – | – | – | – | –
5 | Cc1ccccc1OCC(=O)NCCc1nc2ccccc2[nH]1 [Compound 17] | > 100 | – | – | – | – | – | – | – | – | – | 392 | 300 | 1738 | 0 | 153 | 83 | 0.5 | 4.4 | 6.3 | –
6 | O=C(COc1ccccc1Br)NCCc1nc2ccccc2[nH]1 [Compound 18] | > 100 | – | – | – | – | – | – | – | – | – | 334 | 191 | 1728 | 1.2 | 283 | 84 | 0.2 | 1.8 | 3.2 | Tmax ([3]; mouse, plasma, Table 6, PO 0.5 mg/kg, male CD1 mice): 18 min; AUC ([3]; mouse, plasma, Table 6, PO 0.5 mg/kg, male CD1 mice, read-out: AUC (ng*h/ml) PO): 1 ng·h/mL
